Measurements taken from patent publication US20200384072A1, “THERAPY OF IONIZING RADIATION-INDUCED DISORDERS” (SCK-CEN, priority 2019, published 2020).

Experiments:
Type in all cases: cell-based, human
[1] = test system: TIME cells; experiment: Cytokine detection (Magnetic Luminex) in supernatant after irradiation, TIME cells
Method: TICAE and TIME cells were seeded in a 6-well plate at a density of 2.5×10^5 cells/well in 5 to 6 biological replicates. Two to three days later, cells reached 100% confluence. At 30 minutes before X-ray exposure, cells were refreshed with medium with or without 100 μM TAT-Gap19 (Genosphere Biotechnologies, Paris, France). At 24 h, 48 h, 72 h and 7 d after irradiation, the supernatant was collected. Medium was changed only for the 7 d time point experiment at the fourth day with fresh medium alone or with medium supplemented with 100 μM TAT-Gap19. For the simultaneous detection of multiple cytokines in the supernatants, the Magnetic Luminex® Assay (R&D systems, Minneapolis, […]) was used following manufacturer's instructions. Briefly, supernatants, standards and microparticles were incubated into a 96-well plate which was pre-coated with cytokine-specific antibodies. The immobilized antibodies were able to bind the cytokines of interest after 2 h incubation, then the plate was washed and incubation with a biotinylated antibody cocktail specific to the cytokines of interest was performed for 1 h. A second wash was performed to remove the unbound biotinylated antibodies. Further, a streptavidin-phycoerythrin conjugate was added to each well to bind to the biotinylated antibodies. After a final wash, the microparticles were resuspended in buffer and read using the Luminex® MAGPIX Analyzer (R&D systems, Minneapolis, […]).
In order to normalize to cell number, DAPI staining was performed for the 48 h after irradiation time point. Briefly, cells were washed with phosphate buffered saline (PBS) and fixed with 4% paraformaldehyde (PFA) for 15 minutes at room temperature. Afterwards, the cells were washed with PBS and stained with 1 μg/mL 4′,6-Diamidine-2′-phenylindole (DAPI) dissolved in 1×TBST, 0.005 g/v % TSA blocking powder (PerkinElmer, FP1012) (TNB). After one hour, cells were washed with PBS and DAPI signals were visualized with the Nikon Eclipse Ti automated inverted wide-field epifluorescence microscope equipped with a 5× magnification (Plan Fluor, numerical aperture 0.6) dry objective and a Nikon IE2000-E camera controlled by the MS Elements software. The intensity of the DAPI signals was determined with the FIJI software. Cell count for 24 h after irradiation experiment was performed by Moxi Z Mini Automated Cell Counter (ORFLO Technologies, Ketchum, Id., USA) after trypsinization. For the 72 h and 7 d post-irradiation cell counts, we used IncuCyte ZOOM™ phase contrast imaging based on 49 images taken per well with the 10× objective.

[2] = test system: TICAE cells; experiment: Intracellular ROS, CM-H2DCFDA IncuCyte live cell imaging, TICAE cells; settings: 100 μM TAT-Gap19, 0.1 and 5 Gy, 45 min p.i.
Method: In order to further assess intracellular ROS production, IncuCyte live cell imaging was used to have fast imaging in large number of replicates over multiple time points. TICAE and TIME cells were seeded in 96-well plate in 16 replicates at a density of 10000 cells/well. Three days later, cells reached 100% confluence. At 30 minutes before irradiation, a fresh MesoEndo Cell Growth Medium without phenol red (Sigma-Aldrich Co. LCC, Diegem, Belgium) supplemented with 10 μmol/L of the CM-H2DCFDA dye (Sigma-Aldrich Co. LCC, Diegem, Belgium) was added to the cells, with or without 100 μM TAT-Gap19 (Genosphere Biotechnologies, Paris, France). Fluorescence signals were measured at 45 min, 2 h and 3 h after irradiation (CM-H2DCFDA dye became saturated due to photoactivaton, and leaked outside the cells after this time) using the IncuCyte ZOOM® system (Essen BioScience, Ann Arbor, Mich., USA), 10× objective and FITC filter. […] Images were analysed making use of the software package provided by the manufacturer; we used a training set of images from different doses to define the image processing procedure. The so called Top-Hat background subtraction method was applied by measuring the radius of the fluorescence object (30 μm), and adjust a threshold of 1.5 (above the local background fluorescent intensity level), as described in IncuCyte™ Background Fluorescence Technical Note. […]

[3] = test system: TICAE cells; experiment: Cell death, Annexin V and Caspase 3/7 live cell imaging, TICAE cells
Method: TICAE and TIME cells were seeded in 96 well plates at a density of 10000 cells/well in 8 biological replicates. After three days, cells were at 100% confluence. At 30 minutes before X-ray exposure, cells were refreshed with 200 μl medium supplemented with Caspase 3/7 reagent (1:1000 dilution) and Annexin V reagent (1:200 dilution) (Essen Bioscience, United Kingdom) with or without 100 μM TAT-Gap19 (Genosphere Biotechnologies, Paris, France). Fluorescence signals were measured from 4 h until 100 h after irradiation by imaging every 2 hours using the IncuCyte ZOOM® system (Essen BioScience, Ann Arbor, Mich., USA). Different channels (TRITC, FITC and phase contrast) and a 10× objective were used. Spectral unmixing set as 8% of red removed from green was applied. The IncuCyte software's processing definition was set to recognize red (Annexin V) and green (Caspase 3/7) stained cells, making use of the Top-Hat background subtraction method. Fluorescence signal was normalized to cell count.

[4] = 100 μM TAT-Gap19, 0 Gy and 0.1 Gy, from 4-16 h p.i. until the end
[5] = 100 μM TAT-Gap19, 5 Gy, from 12 h p.i. until end of recording (100 h)

TAT-Gap19: connexin mimetic peptide, amino-acids 128-136 of the CL of Cx43 (SEQ ID NO: 2), Gap19 linked to TAT sequence; Cx43 hemichannel inhibitor (YGRKKRRQRRRKQIEIKKFK)
E-selectin readout ([1]; 100 μM TAT-Gap19, 0.1 Gy): decreased | IL-6 readout ([1]; 100 μM TAT-Gap19, 0.1 Gy): decreased | IL-8 readout ([1]; 100 μM TAT-Gap19, 0.1 Gy): decreased | PECAM-1 readout ([1]; 100 μM TAT-Gap19, 0.1 Gy): decreased | TNF-α readout ([1]; 100 μM TAT-Gap19, 0.1 Gy): decreased | VCAM-1 readout ([1]; 100 μM TAT-Gap19, 0.1 Gy): decreased | CRP (radiation-induced increase) ([1]; 100 μM TAT-Gap19, 5 Gy, 24 h): significantly reduced the increase | E-Selectin (radiation-induced increase) ([1]; 100 μM TAT-Gap19, 5 Gy, 24 h): significantly reduced the increase | ICAM-1 (radiation-induced increase) ([1]; 100 μM TAT-Gap19, 5 Gy, 24 h): significantly reduced the increase | IL-1B (radiation-induced increase) ([1]; 100 μM TAT-Gap19, 5 Gy, 24 h): significantly reduced the increase | MCP-1 (radiation-induced increase) ([1]; 100 μM TAT-Gap19, 5 Gy, 24 h): significantly reduced the increase | PECAM-1 (radiation-induced increase) ([1]; 100 μM TAT-Gap19, 5 Gy, 24 h): significantly reduced the increase | TNF-α (radiation-induced increase) ([1]; 100 μM TAT-Gap19, 5 Gy, 24 h): significantly reduced the increase | IL-6 (radiation-induced increase) ([1]; 100 μM TAT-Gap19, 5 Gy, 24 h, 48 h and 7 d p.i.): significantly reduced these responses | Endothelin-1 (radiation-induced increase) ([1]; 100 μM TAT-Gap19, 5 Gy, 24 h, 72 h and 7 d p.i.): significantly decreased these responses | VCAM-1 (radiation-induced increase) ([1]; 100 μM TAT-Gap19, 5 Gy, 24 h and 7 d p.i.): significantly reduced these responses | IL-8 levels ([1]; 100 μM TAT-Gap19, 5 Gy, 7 d p.i.): significantly decreased IL-8 levels | Endothelin-1 readout ([1]; 100 μM TAT-Gap19, control and 0.1 Gy): decreased | IL-6 readout ([1]; 100 μM TAT-Gap19, control and 0.1 Gy, 7 d p.i.): increased | ROS production (IncuCyte) [2]: significantly reduced ROS production at both doses | Annexin V [3, 4]: significantly reduced | Caspase 3/7 activity [3, 4]: significantly reduced | Annexin V [3, 5]: significantly reduced | Caspase 3/7 activity [3, 5]: significantly reduced
